Measurements as given in patent publication US5840859A, “(Aminostyryl)pyridinium compounds for radiolabelling cell membranes” (Research Corporation Technologies, Inc., priority 1996, dated 1998).

What was measured:
[1] = test system: inflammatory lesions / abscesses; conditions: compared with all agents yet tested; cited from earlier work
[2] = test system: sodium urate induced abscess in the stifle joint; test: Localization of labeled leukocytes in dogs having a sodium urate induced abscess in the stifle joint (aspirate, gamma camera images)
Description: Mixed leukocytes labeled with 4b and ^111 In-oxine labeled mixed leukocytes were compared in dogs having a sodium urate-induced inflammation in the left stifle joint. […]

[3] = test system: mixed leukocytes; test: Mixed leukocyte labeling yield; assay type: cell-based, canine
Experimental: Labeling of mixed leukocytes (harvested from 20 mL canine blood) with 4a-d was performed using five different procedures: 1) labeling in Diluent C (a commercial non-ionic cell labeling media developed by Zynaxis Co. that is not approved for human use) after two saline washes of the cell pellet; 2) labeling in saline after two saline washes of the cell pellet; 3) labeling in saline with no saline washes of the cell pellet; 4 and 5) labeling in ether 10% or 100% platelet poor plasma (PPP).
Unwashed mixed leukocytes in 1.5 mL 10% PPP in saline were also tested. […]
This was evaporated to dryness under vacuum in a speed vac and reconstituted into 30 ul ethanol. Forty milliliters of canine blood was drawn into a 60 mL syringe containing 6.5 mL acetate-citrate-dextrose solution. To this was added 5.5 mL 2% methyl cellulose in saline. The contents of the syringe were gently mixed by several inversions of the syringe and the syringe placed vertically, needle end up, for 45 minutes to allow the red blood cells to settle. The plasma was drawn off and placed into a 50 mL Falcon tube. The tube was centrifuged at 1100 rpm for 15 minutes to pellet the leukocytes. The plasma was removed and the cells resuspended in 2 mL saline. In a 1 mL plastic microcentrifuge was placed 0.5 mL saline. […] The cells were then underlayered with 7.5 mL of platelet poor plasma and centrifuged at 1600 rpm for seven minutes to pellet the cells. The supernatant was removed, the cells resuspended in 10 mL saline, and transferred to a new tube. The supernatant, cells, and labeling tube were counted for radioactivity. The cells were centrifuged again at 1600 rpm for 7 minutes, the supernatant removed, and the cells resuspended.
A sample of canine blood (20 mL) was drawn into a 60 mL syringe containing 3 mL acetate-citrate-dextrose (ACD) solution. To this was added 3 mL 2% methyl cellulose in saline. The contents of the syringe were gently mixed by several inversions, and the syringe was then placed vertically, needle end up, for 45 min to allow the red blood cells to settle. The plasma was drawn off and transferred to a 50 mL Falcon tube. The tube was centrifuged at 1100 rpm for 15 min to pellet the leukocytes. The plasma was removed and the cells resuspended in 10 mL saline. The tube was centrifuged at 1600 rpm for 7 min, the supernatant removed, and the cells resuspended in 10 mL saline and recentrifuged at 1600 rpm for 7 min. The supernatant was then removed and the cells resuspended in 2 mL Diluent C. Into a 1 mL plastic microcentrifuge tube was placed 0.5 mL Diluent C. […] The indium complex in Diluent C was immediately added to the leukocytes and the cells were placed vertically on a Nutator rocking apparatus and rocked gently for 30 min at room temperature. The cells were then underlayered with 5 mL of platelet poor plasma and centrifuged at 1600 rpm for 7 min to pellet the cells. The supernatant was removed, the cells resuspended in 10 mL saline, and transferred to a new tube. The supernatant, cells, and labeling tube were counted for radioactivity. The cells were centrifuged again at 1600 rpm for 7 min, the supernatant removed, and the cells resuspended.

[4] = test system: mononuclear leukocytes; test: Mononuclear leukocyte labeling yield; assay type: cell-based; conditions: harvested from 20 mL canine blood via isolymph method
Experimental: Using ^125 I-4b and ^131 I-4b, mononuclear leukocytes harvested from 20 mL canine blood via the isolymph method (sodium diatrizoste and Ficol 400, d=1.077) were labeled in 77% and 85% yields, respectively. Thus, the present compounds can label both lymphocytes and mixed leukocytes in high yields, and that the latter can be used to image sites of focal inflammation.

[5] = 48 hour, estimated from region of interest (ROI) measurements
[6] = Experiment 3, injected 88 μCi 131I-4b, 331 μCi 111In-oxine, Diluent C
[7] = Experiment 4, injected 255 μCi 131I-4b, 288 μCi 111In-oxine, Diluent C
[8] = Experiment 5, injected 272 μCi 131I-4b, 326 μCi 111In-oxine, saline
[9] = Experiment 6, injected 211 μCi 131I-4b, 378 μCi 111In-oxine, saline
[10] = Table 3 Experiment 3, 4b 500 Ci/mmol, Diluent C after 2 × 10 mL saline washes
[11] = Table 3 Experiment 4, 4b 1000 Ci/mmol, Diluent C after 2 × 10 mL saline washes
[12] = Table 3 Experiment 5, 4b 800 Ci/mmol, saline after 2 × 10 mL saline washes
[13] = Table 3 Experiment 6, 4b 800 Ci/mmol, saline after 2 × 10 mL saline washes

[In+3].[O-]c1cccc2cccnc12.[O-]c1cccc2cccnc12.[O-]c1cccc2cccnc12 [^111 In-oxine, reference compound]
absolute inflammatory lesion uptake [1]: highest absolute inflammatory lesion uptake of all agents yet tested | abscess visibility in gamma camera images ([2]; 3 hours): the abscess was visible at 3 hours | percent injected dose per organ, liver [2, 5]: 13.1% | % aspirate radioactivity cell bound ([2]; Experiment 1): 95% | % inj. dose in abscess aspirate ([2]; Experiment 1, injected 84 μCi 125I-4b, 500 μCi 111In-oxine, Diluent C): 0.383% | % aspirate radioactivity cell bound ([2]; Experiment 2): 98% | % inj. dose in abscess aspirate ([2]; Experiment 2, injected 66 μCi 125I-4b, 312 μCi 111In-oxine): 0.088% | % aspirate radioactivity cell bound ([2]; Experiment 3): 79% | abscess to contralateral knee ratio ([2]; Experiment 3, 3 hour): 2.7 | abscess to surrounding tissue ratio ([2]; Experiment 3, 3 hour): 2.0 | % inj. dose in abscess aspirate [2, 6]: 0.019% | % aspirate radioactivity cell bound ([2]; Experiment 4): 88% | abscess to contralateral knee ratio ([2]; Experiment 4, 48 hours): 4.0 | abscess to surrounding tissue ratio ([2]; Experiment 4, 48 hours): 2.6 | % inj. dose in abscess aspirate [2, 7]: 0.056% | % aspirate radioactivity cell bound ([2]; Experiment 5): 92% | % inj. dose in abscess aspirate [2, 8]: 0.021% | 131I/111In or 125I/111In in aspirate ([2]; Experiment 6): 22 | % aspirate radioactivity cell bound ([2]; Experiment 6): 78% | % inj. dose in abscess aspirate [2, 9]: 0.016% | gamma camera images, comparison of 4b and 111In-oxine ([2]; between 1 hour and 3 hours): comparable | Labeling Yield ([3]; Table 3 Experiment 1, 4b 250 Ci/mmol, Diluent C after 2 × 10 mL saline washes): 88% | Labeling Yield ([3]; Table 3 Experiment 2, 4b footnotes a,c (250 / 1000 Ci/mmol)): 91% | Labeling Yield [3, 10]: 85% | Labeling Yield [3, 11]: 94% | Labeling Yield [3, 12]: 89% | Labeling Yield [3, 13]: 87%

CCCCCCN(CCCCCC)c1ccc(/C=C/c2cc[n+](C/C=C/[131I])cc2)cc1 [^131 I-4b, 3-[4-[2-(N,N-dihexylamino)phenyl]ethyenyl]pyridino-E-1-[^131 I]-iodo-propene]
percent injected dose per organ, abscess [2, 5]: 1.15% | 131I/111In or 125I/111In in aspirate ([2]; Experiment 3): 2.6 | % aspirate radioactivity cell bound ([2]; Experiment 3): 93% | abscess to contralateral knee ratio ([2]; Experiment 3, 3 hour): 3.7 | abscess to surrounding tissue ratio ([2]; Experiment 3, 3 hour): 2.3 | % inj. dose in abscess aspirate [2, 6]: 0.050% | 131I/111In or 125I/111In in aspirate ([2]; Experiment 4): 3.5 | % aspirate radioactivity cell bound ([2]; Experiment 4): 97% | abscess to contralateral knee ratio ([2]; Experiment 4, 48 hours): 9.1 | abscess to surrounding tissue ratio ([2]; Experiment 4, 48 hours): 6.3 | % inj. dose in abscess aspirate [2, 7]: 0.194% | 131I/111In or 125I/111In in aspirate ([2]; Experiment 5): 4.3 | % aspirate radioactivity cell bound ([2]; Experiment 5): 95% | % inj. dose in abscess aspirate [2, 8]: 0.092% | 131I/111In or 125I/111In in aspirate ([2]; Experiment 6): 22 | % aspirate radioactivity cell bound ([2]; Experiment 6): 94% | % inj. dose in abscess aspirate [2, 9]: 0.355% | lung sequestration of labeled leukocytes ([2]; dog, in vivo): No lung sequestration was observed | percent injected dose per organ, liver ([2]; dog, in vivo, 2880 min): 8.7% | localization of labeled leukocytes in induced inflammatory site/abscess, compared with 111In-oxine (111In-labeled) leukocytes ([2]; sodium urate induced abscess, dog): higher degree of localization | 131I bound to the cells ([3]; Example 10, of 372 uCi added, saline, 20 min): 340 uCi | 131I bound to the cells (labeling yield) ([3]; Example 10, saline, 372 uCi, 20 min, room temperature, after second centrifugation): 91% | Labeling Yield [3, 10]: 88% | Labeling Yield [3, 11]: 88% | Labeling Yield [3, 12]: 86% | Labeling Yield [3, 13]: 87% | Mononuclear leukocyte labeling yield [4]: 85%
